In patent US20220273765A1, “TOPICAL FORMULATION” (Follicum AB, priority 2019, published 2022):
Where two headings read alike, the source gives them in different places. No end group written: not given here.

Key:
[1] = Solubility of FOL-005 in vehicle excipients and artificial sebum (HPLC); type: physicochemical
Procedure: The testing was performed by charging 0.1% (w/w) of FOL-005 together with 99.90% excipient. […] The mixtures were stirred with magnetic stirrer for 2 hours. If particles of FOL-005 remained, the mixture was centrifuged at 14000 rpm or 10000 rpm (artificial sebum) for 5 minutes and the supernatant was withdrawn for analysis. The concentration of FOL-005 was determined by HPLC analysis in all batches.

[2] = tested on: C57BL/6 mice in stable telogen phase; test: Hair growth promotion efficacy in C57BL/6 mouse model by topical route; type: in vivo; conditions: 5% solution, 50 μL/cm2 topically twice daily, 4 weeks + 1 week observation
Procedure: C57Bl6 mice in stable telogen phase (age 6-9 weeks) were carefully clipped. Topical formulation of FOL-005 at three different strengths and placebo was applied at the clipped area once daily, 5 days per week until day 26. For comparison Minoxidil was administered to one group twice daily, 5 days per week until day 26.
The present study was conducted to evaluate the hair growth promotion efficacy of FOL-005 in C57BL/6 mouse model by topical route of administration. Male C57BL/6 mice in stable telogen phase (resting phase) of hair growth cycle were used. The hair on the dorsal back of the animals was clipped and the area was treated with FOL-005 topical formulation, placebo formulation or commercially available Minoxidil 5%.
Three formulations of FOL-005 (High dose—0.5%, Medium dose—0.05% and Low dose—0.005%) along with placebo were screened for hair growth promotion efficacy by applying 50 μL/cm2 on the dorsal clipped skin of animals in the respective groups. The application regimen was total of 4 weeks (5 days/week) followed by 1 week of observation period. […] After completion of observation period, it was observed that FOL-005 formulation led to hair growth promotion efficacy in a dose response manner. […] Visual melanogenesis was also observed in the peeled skin of 3/7 animals, 2/7 animals and 1/7 animal in the High, Medium and Low dose respectively. […]

[3] = sodium salt, in PBS buffer pH 7.4, room temperature

VDTYDGDISVVYGLR [FOL-005]
solubility at 2 h ([1]; 0.5% Cithrol in paraffin oil, sodium salt, in 0.5% Cithrol in paraffin oil, room temperature, read-out: FOL-005 solubility): 10 µg/mL
solubility at 2 h ([1]; 10% glucose in water, in 10% Glucose in water, room temperature, read-out: FOL-005 solubility): > 1010 µg/mL
solubility of FOL-005 in 10% glucose solution ([1]; 10% glucose solution): above 4.38 % (w/w)
solubility at 2 h ([1]; 10% mannitol in water, in 10% Mannitol in water, room temperature, read-out: FOL-005 solubility): > 1040 µg/mL
solubility at 2 h ([1]; 10% sucrose in water, in 10% Sucrose in water, room temperature, read-out: FOL-005 solubility): > 1040 µg/mL
solubility at 2 h ([1]; 30% glucose in water, in 30% Glucose in water, room temperature, read-out: FOL-005 solubility): > 1070 µg/mL
solubility at 2 h ([1]; 30% sucrose in water, in 30% Sucrose in water, room temperature, read-out: FOL-005 solubility): > 1040 µg/mL
solubility at 2 h ([1]; PBS buffer, pH 7.4, sodium salt, in PBS buffer pH 7.4, room temperature, read-out: FOL-005 solubility): > 1000 µg/mL
solubility at 2 h ([1]; artificial sebum, sodium salt, in artificial sebum, 37° C., read-out: FOL-005 solubility): 270 µg/mL
Observation ([1]; in 10% Glucose in water, room temperature): soluble
Observation ([1]; in 10% Mannitol in water, room temperature): soluble
Observation ([1]; in 10% Sucrose in water, room temperature): soluble
Observation ([1]; in 30% Glucose in water, room temperature): soluble
Observation ([1]; in 30% Sucrose in water, room temperature): soluble
Observation ([1]; in lactic acid, room temperature): soluble
solubility at 2 h ([1]; lactic acid, in lactic acid, room temperature, read-out: FOL-005 solubility): > 1170 µg/mL
FOL-005 solubility [1, 3]: >980 µg/mL
Observation [1, 3]: soluble
solubility at 2 h ([1]; sugar solutions of glucose, mannitol and sucrose, sodium salt, sugar solutions of glucose, mannitol and sucrose, room temperature, read-out: solubility in sugar solutions): > 1000 µg/mL

Nc1cc(N2CCCCC2)nc(N)[n+]1[O-] [Minoxidil]
Anagen induction followed by hair growth [2]: 4/5
Visual melanogenesis in the peeled skin [2]: 4/5
